These results are taken from patent US20240101569A1, “SALT CRYSTALS” (INTRA-CELLULAR THERAPIES, INC., priority 2021, published 2024).

The Cmax is the maximum level reached in the sampled fluid or tissue. One may read the Tmax as the time from dosing to the highest level. As usually defined, the half-life is the time needed for the level to fall by half in the phase considered. The term solubility denotes the concentration that dissolves in the medium under given conditions.

Data set [1] deals with phosphodiesterase 1 (PDE 1). As to conditions: statement, no values; cited from earlier work.
Data set [2] can be described thus: Pharmacokinetics study of succinate salt crystals in dogs. Format: in vivo. The conditions noted are these: 5 mg/kg orally, plasma; for DN AUC0-24 / DN Cmax: dose-normalised; for Cmax / Tmax / half-life / AUC(0-t): dog, po; for AUC(0-t): read-out: AUC0-24. How it is done: The succinate salt of 2-(4-acetylbenzyl)-3-((4-fluorophenyl)amino)-5,7,7-trimethyl-7,8-dihydro-2H-imidazo[1,2-a]pyrazolo[4,3-e]pyrimidin-4(5H)-one is administered to dogs at a dose of 5 mg/kg orally. A separate group of dogs is administered 2-(4-acetylbenzyl)-3-((4-fluorophenyl)amino)-5,7,7-trimethyl-7,8-dihydro-2H-imidazo[1,2-a]pyrazolo[4,3-e]pyrimidin-4(5H)-one free base 5 mg/kg orally. The analysis of drug concentration in plasma samples collected is analyzed.
The pharmacokinetic (PK) parameters are determined from the plasma concentration versus time data by non-compartmental methods with uniform weighting. The maximum observed concentration (Cmax) and the time of the maximum observed concentration (Tmax) are obtained from the bioanalytical raw data. The area-under-the-plasma concentration-time curve from time zero to the time of the last measurable sample (AUC) is calculated by the trapezoidal rule.

Data set [3] in a line: Solubility study of free base crystalline and succinate salt crystalline forms (pH titration, chase equilibrium). Format: physicochemical. The conditions noted are these: water, thermodynamic from solid, aqueous, titration with UV-turbidity probe. The text has this:
The solubilities of free base crystalline and succinate salt crystalline forms of 2-(4-acetylbenzyl)-3-((4-fluorophenyl)amino)-5,7,7-trimethyl-7,8-dihydro-2H-imidazo[1,2-a]pyrazolo[4,3-e]pyrimidin-4(5H)-one are compared. Samples are titrated in water or in a minimum of three titrations under co-solvent conditions from the pH where the sample is fully dissolved. The sample precipitates from solution are detected by a UV-turbidity probe, which corresponds to a kinetic solubility. After precipitation, base and acid titrants are alternately added to drive the sample back and forth across the equilibrium solubility of the neutral species (the intrinsic solubility). At this point, the samples would exist in a supersaturated or subsaturated state (i.e. chase equilibrium). The intrinsic solubilities are determined from the pH between the supersaturated and subsaturated states corresponding to an intrinsic solubility. The samples can be determined by extrapolation to aqueous media, when co-solvent conditions are used.
This degree of aqueous solubility predicts faster dissolution rates in vitro and in vivo.

Data set [4] can be described thus: Solid-state properties of succinate salt crystals (stated in words). It is filed as physicochemical.

In the case of `CC(=O)c1ccc(Cn2nc3c(c2Nc2ccc(F)cc2)C(=O)N(C)C2=NC(C)(C)CN23)cc1` [Free Base, 2-(4-acetylbenzyl)-3-((4-fluorophenyl)amino)-5,7,7-trimethyl-7,8-dihydro-2H-imidazo[1,2-a]pyrazolo[4,3-e]pyrimidin-4(5H)-one], the “PDE1 inhibition (in words)” value in data set [1] was “potent and selective”. Besides, in data set [2], the “DN AUC0-24” value was 304.6 [ng · hr/mL]/[mg/kg], the “DN Cmax” value was 41 [ng/mL]/[mg/kg], the Cmax stood at 205 ng/mL and the Tmax came out at 1.3 h. Also, in data set [2], the half-life is 6.8 h and the AUC(0-t) turned out to be 1520 ng·h/mL. In data set [3], the solubility is 285 µg/mL.

Regarding `CC(=O)c1ccc(Cn2nc3c(c2Nc2ccc(F)cc2)C(=O)N(C)C2=NC(C)(C)CN23)cc1.O=C(O)CCC(=O)O` [Succinate Salt, 2-(4-acetylbenzyl)-3-((4-fluorophenyl)amino)-5,7,7-trimethyl-7,8-dihydro-2H-imidazo[1,2-a]pyrazolo[4,3-e]pyrimidin-4(5H)-one succinate], in data set [2], the “DN AUC0-24” value was 331.9 [ng · hr/mL]/[mg/kg], the “DN Cmax” value is 123.8 [ng/mL]/[mg/kg], the Cmax was 619 ng/mL and the Tmax came to 0.4 h. In addition, in data set [2], the half-life was 7 h and the AUC(0-t) worked out at 1660 ng·h/mL. In data set [4], the hygroscopicity result is given as “low hygroscopicity”, the “solubility (in words)” value is given as “good solubility” and the stability entry is “particularly stable”. Moreover, the solubility in data set [3] was approximately 7000 µg/mL.
